Measured values published in patent US20240116857A1 (St. Louis University, priority 2022, published 2024).

Test system: not listed separately
Test: Cytotoxicity assay (CellTiter AQueous One Solution, MTS)
Format: cell-based
Conditions: human, HEK293 cells, 24 h incubation
Description: Cytotoxicity of the compounds was evaluated using the CellTiter AQueous One Solution Cell Proliferation Assay (MTS; Promega) as previously described (2). HEK293 cells were incubated with a 2-fold serially diluted compounds for 24 h at 37° C. with 5% CO2, followed by addition of 20 μL of CellTiter AQueous and further incubated for 4 h at 37° C. The absorbance at 490 nm was recorded using a Tecan Spark 10 M plate reader. All measurements were done in three replicas. The growth curves were then fitted to a sigmoidal equation to determine the cytotoxicity concentration CC50.

Row | SMILES | CC50 at 24 h [µM]
1 | C[n+]1ccc(Nc2ccc(NC(=O)c3ccc(C(=O)Nc4ccc(Nc5cc[n+](C)cc5)cc4)c([N+](=O)[O-])c3)cc2)cc1 [Example 25, 4,4′-((((2-nitroterephthaloyl)bis(azanediyl))bis(4,1-phenylene))bis(azanediyl))bis(1-methylpyridin-1-ium)] | 350
2 | C[N+](C)(C)c1ccc(NC(=O)c2ccc(-c3ccc(C(=O)Nc4ccc([N+](C)(C)C)c(Cl)c4)cc3)cc2)cc1Cl [Example 39, 4,4′-(([1,1′-biphenyl]-4,4′-dicarbonyl)bis(azanediyl))bis(2-chloro-N,N,N-trimethylbenzenaminium)] | 330
3 | C[n+]1ccc(Nc2ccc(NC(=O)c3ccc(C(=O)Nc4ccc(Nc5cc[n+](C)cc5)cc4)c(N)c3)cc2)cc1 [Example 30, 4,4′-((((2-aminoterephthaloyl)bis(azanediyl))bis(4,1-phenylene))bis(azanediyl))bis(1-methylpyridin-1-ium)] | 480
4 | C[n+]1ccc(Nc2ccc(NC(=O)c3ccc(C(=O)Nc4ccc(Nc5cc[n+](C)cc5)cc4)c(C(F)(F)F)c3)cc2)cc1 [Example 47] | 350
5 | COc1cc(NC(=O)c2ccc(-c3ccc(C(=O)Nc4ccc([N+](C)(C)C)c(OC)c4)cc3)cc2)ccc1[N+](C)(C)C [Example 35, 4,4′-(([1,1′-biphenyl]-4,4′-dicarbonyl)bis(azanediyl))bis(2-methoxy-N,N,N-trimethylbenzenaminium)] | 650

Test system: E. coli BW25113
Test: MIC, 2-fold broth dilution, E. coli BW25113
Format: cell-based, Escherichia coli
Conditions: Escherichia coli, BW25113, read-out: MIC, μM >50

Row | SMILES | MIC [µM]
6 | CN(C)c1ccc(NC(=O)c2ccc(-c3ccc(C(=O)Nc4ccc(N(C)C)c([N+](=O)[O-])c4)cc3)cc2)cc1[N+](=O)[O-] [Example 141] | > 50

Same assay, conditions: Escherichia coli; E. coli BW25113; asterisk in column 1-10; read-out: MIC, μM 1-10

Row | SMILES | MIC [µM]
7 | C[n+]1ccc(Nc2ccc(NC(=O)c3ccc(C(=O)Nc4ccc(Nc5cc[n+](C)cc5)cc4)c([N+](=O)[O-])c3)cc2)cc1 [Example 25, 4,4′-((((2-nitroterephthaloyl)bis(azanediyl))bis(4,1-phenylene))bis(azanediyl))bis(1-methylpyridin-1-ium)] | 1 to 10
8 | C[N+](C)(C)c1ccc(NC(=O)c2ccc(-c3ccc(C(=O)Nc4ccc([N+](C)(C)C)c(Cl)c4)cc3)cc2)cc1Cl [Example 39, 4,4′-(([1,1′-biphenyl]-4,4′-dicarbonyl)bis(azanediyl))bis(2-chloro-N,N,N-trimethylbenzenaminium)] | 1 to 10
9 | C[n+]1ccc(Nc2ccc(NC(=O)c3ccc(C(=O)Nc4ccc(Nc5cc[n+](C)cc5)cc4)c(N)c3)cc2)cc1 [Example 30, 4,4′-((((2-aminoterephthaloyl)bis(azanediyl))bis(4,1-phenylene))bis(azanediyl))bis(1-methylpyridin-1-ium)] | 1 to 10
10 | C#CCCCCCCCCOc1cc(NC(=O)c2ccc(-c3ccc(C(=O)Nc4ccc([N+](C)(C)C)c(F)c4)cc3)cc2)ccc1[N+](C)(C)C [Example 116] | 1 to 10
11 | C[n+]1ccc(-c2ccc(NC(=O)c3ccc(C(=O)Nc4ccc(-c5cc[n+](C)cc5)cc4)cc3)cc2)cc1 [Example 56] | 1 to 10
12 | C[n+]1ccc(Nc2ccc(NC(=O)c3ccc(C(=O)Nc4ccc(Nc5cc[n+](C)cc5)cc4)c(F)c3)cc2)cc1 [Example 58, 4,4′-((((2-fluoroterephthaloyl)bis(azanediyl))bis(4,1-phenylene))bis(azanediyl))bis(1-methylpyridin-1-ium)] | 1 to 10

Same assay, conditions: Escherichia coli; E. coli BW25113; asterisk in column 10-50; read-out: MIC, μM 10-50

Row | SMILES | MIC [µM]
13 | C[n+]1ccc(Nc2ccc(NC(=O)c3ccc(C(=O)Nc4ccc(Nc5cc[n+](C)cc5)cc4)c(C(F)(F)F)c3)cc2)cc1 [Example 47] | 10 to 50
14 | COc1cc(NC(=O)c2ccc(-c3ccc(C(=O)Nc4ccc([N+](C)(C)C)c(OC)c4)cc3)cc2)ccc1[N+](C)(C)C [Example 35, 4,4′-(([1,1′-biphenyl]-4,4′-dicarbonyl)bis(azanediyl))bis(2-methoxy-N,N,N-trimethylbenzenaminium)] | 10 to 50
15 | Cc1c[n+](C)ccc1NC(=O)c1ccc(C(=O)Nc2ccc(Nc3cc[n+](C)cc3)cc2)cc1 [Example 55, 1,3-dimethyl-4-(4-((4-((1-methylpyridin-1-ium-4-yl)amino)phenyl)carbamoyl)benzamido)pyridin-1-ium] | 10 to 50
16 | C[N+](C)(C)c1ccc(NC(=O)c2ccc(-c3ccc(C(=O)Nc4ccc([N+](C)(C)C)cc4)cc3)cc2)cc1 [Example 23, 4,4′-(([1,1′-biphenyl]-4,4′-dicarbonyl)bis(azanediyl))bis(N,N,N-trimethylbenzenaminium)] | 10 to 50

Same assay, conditions: Escherichia coli; E. coli BW25113; asterisk in column >50; read-out: MIC, μM >50

Row | SMILES | MIC [µM]
17 | O=C(Nc1ccc(Nc2ccncc2)cc1)c1ccc(-c2ccc(C(=O)Nc3ccc(Nc4ccncc4)cc3)cc2)cc1 [Example 16, N^4,N^4′-bis(4-(pyridin-4-ylamino)phenyl)-[1,1′-biphenyl]-4,4′-dicarboxamide] | > 50
18 | CN(C)c1ccc(NC(=O)c2ccc(-c3ccc(C(=O)Nc4ccc(N(C)C)c(F)c4)cc3C(F)(F)F)cc2)cc1F [Example 114] | > 50
19 | C[N+](C)(C)c1ccc(NC(=O)c2ccc(-c3ccc(C(=O)Nc4ccc([N+](C)(C)C)cc4)cn3)nc2)cc1 [Example 73, 4,4′-(([2,2′-bipyridine]-5,5′-dicarbonyl)bis(azanediyl))bis(N,N,N-trimethylbenzenaminium)] | > 50
20 | C#CCCOc1cc(NC(=O)c2ccc(-c3ccc(C(=O)Nc4ccc(N(C)C)c(F)c4)cc3)cc2)ccc1N(C)C [Example 99, N^4-(3-(but-3-yn-1-yloxy)-4-(dimethylamino)phenyl)-N^4′-(4-(dimethylamino)-3-fluorophenyl)-[1,1′-biphenyl]-4,4′-dicarboxamide] | > 50
21 | O=C(Nc1ccc(Nc2ccncc2)cc1)c1ccc(C(=O)Nc2ccc(Nc3ccncc3)cc2)c(C(F)(F)F)c1 [Example 41, N^1,N^4-bis(4-(pyridin-4-ylamino)phenyl)-2-(trifluoromethyl)terephthalamide] | > 50
22 | O=C(Nc1ccc(Nc2ccncc2)cc1)c1ccc(C(=O)Nc2ccc(Nc3ccncc3)cc2)c(Br)c1 [Example 68, 2-bromo-N^1,N^4-bis(4-(pyridin-4-ylamino)phenyl)terephthalamide] | > 50
23 | C#CCN(C)c1ccc(NC(=O)c2ccc(-c3ccc(C(=O)Nc4ccc(N(C)C)c(F)c4)cc3)cc2)cc1F [Example 93, N^4-(4-(dimethylamino)-3-fluorophenyl)-N^4′-(3-fluoro-4-(methyl(prop-2-yn-1-yl)amino)phenyl)-[1,1′-biphenyl]-4,4′-dicarboxamide] | > 50
24 | C[N+](C)(C)C1CCC(NC(=O)c2ccc(-c3ccc(C(=O)NC4CCC([N+](C)(C)C)CC4)cc3)cc2)CC1 (stereo not drawn) [Example 61, 4,4′-(([1,1′-biphenyl]-4,4′-dicarbonyl)bis(azanediyl))bis(N,N,N-trimethylcyclohexan-1-aminium)] | > 50
25 | O=C(Nc1ccc(Nc2ccncc2)cc1)c1ccc(C(=O)Nc2ccc(Nc3ccncc3)cc2)c(F)c1 [Example 51, 2-fluoro-N^1,N^4-bis(4-(pyridin-4-ylamino)phenyl)terephthalamide] | > 50
26 | Cc1cc(C(=O)Nc2ccc([N+](C)(C)C)cc2)ccc1-c1ccc(C(=O)Nc2ccc([N+](C)(C)C)cc2)cc1 [Example 42, 4,4′-((2-methyl-[1,1′-biphenyl]-4,4′-dicarbonyl)bis(azanediyl))bis(N,N,N-trimethylbenzenaminium)] | > 50
27 | C[n+]1ccc(Nc2ccc(NC(=O)c3ccc(-c4ccccc4)cc3)cc2)cc1 [Example 18, 4-((4-([1,1′-biphenyl]-4-ylcarboxamido)phenyl)amino)-1-methylpyridin-1-ium] | > 50
28 | C[N+](C)(C)c1ccc(NC(=O)c2ccc(-c3ccc(C(=O)Nc4ccc([N+](C)(C)C)c(N)c4)cc3)c(S(C)(=O)=O)c2)cc1 [Example 147] | > 50
29 | CN(C)c1ccc(NC(=O)c2ccc(-c3ccc(C(=O)Nc4ccc(N(C)C)c([N+](=O)[O-])c4)cc3C#N)cc2)cc1 [Example 148] | > 50
30 | CN(C)c1ccc(NC(=O)c2ccc(Cc3ccc(C(=O)Nc4ccc(N(C)C)cc4)cc3)cc2)cc1 [Example 49, 4,4′-methylenebis(N-(4-(dimethylamino)phenyl)benzamide)] | > 50
